Values of other authors, collected in patent publication US20060257502A1, “A COMBINATION OF MITOCHONDRIAL NUTRIENTS FOR RELIEVING STRESS, PREVENTING AND IMPROVING STRESS-RELATED DISORDERS” (priority 2005, published 2006).

Tested on: rats

Q: With `Oc1ccc(/C=C/c2cc(O)cc(O)c2)cc1` [Resveratrol, trans-3,5,4′-trihydroxystilbene] as the compound, how does the “No observed adverse effect level” value read?
A: 300 mg per kilogram body weight per day
